Experimental data from US20020137929A1, “1 - (3-heterocyclylphenyl) isothiourea, -isourea, -guanidine and -amidine herbicidal agents” (Intellectual Property Department, BASF Aktiengesellschaft, priority 1998, published 2002).

Assays:
ABUTH (Velvetleaf) = assay: Postemergence herbicidal evaluation; format: in vivo, Abutilon theophrasti; settings: postemergence
Procedure, shortened: (§1)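 Scores (0–9) reflect plant stand, vigor, malformation, size, chlorosis and general appearance relative to control, read 4 to 5 weeks after treatment and averaged where tests were repeated. Application: about 0.0156–0.500 kg/ha sprayed at 40 psi onto two-week seedlings.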

AMBEL (Ragweed, Common) = assay: Postemergence herbicidal evaluation; format: in vivo, Ambrosia artemisifolia; settings: postemergence
Procedure, shortened: as §1

[1] = tested on: CHEAL (Lambsquarters, Common); assay: Postemergence herbicidal evaluation; format: in vivo, Chenopodium album; settings: postemergence
Procedure, shortened: as §1

GALAP (Galium) [2] = assay: Postemergence herbicidal evaluation; format: in vivo, Galium aparine; settings: postemergence
Procedure, shortened: as §1

[3] = tested on: IPOHE (Morningglory, Ivyleaf); assay: Postemergence herbicidal evaluation; format: in vivo, Ipomoea hederacea; settings: postemergence
Procedure, shortened: as §1

SETVI (Foxtail, Green) [4] = assay: Postemergence herbicidal evaluation; format: in vivo, Setaria viridis; settings: postemergence
Procedure, shortened: as §1

[5] = tested on: GLXMAW (Soybean, Williams); assay: Postemergence herbicidal evaluation; format: in vivo, Glycine max, (L.) Merr. cv Williams; settings: postemergence
Procedure, shortened: as §1

ZEAMX (Corn, Field) = assay: Postemergence herbicidal evaluation; format: in vivo, Zea mays; settings: postemergence
Procedure, shortened: as §1

[6] = tested on: CHEAL (Lambsquarters, Common); assay: Preemergence herbicidal evaluation; format: in vivo, Chenopodium album; settings: rated 4-5 weeks after treatment
Procedure, shortened: (§2)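 Seeds were planted in potting soil in cups, then sprayed preemergence with the test compound in aqueous acetone at about 0.0156 to 0.500 kg per hectare. Cups were kept under greenhouse conditions and visually rated 4–5 weeks after treatment on a 0–9 scale against an untreated control.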

GALAP (Galium) [7] = assay: Preemergence herbicidal evaluation; format: in vivo, Galium aparine; settings: rated 4-5 weeks after treatment
Procedure, shortened: as §2

[8] = tested on: IPOHE (Morningglory, Ivyleaf); assay: Preemergence herbicidal evaluation; format: in vivo, Ipomoea hederacea; settings: rated 4-5 weeks after treatment
Procedure, shortened: as §2

ECHCG (Barnyardgrass) = assay: Preemergence herbicidal evaluation; format: in vivo, Echinochloa crus-galli; settings: rated 4-5 weeks after treatment
Procedure, shortened: as §2

SETVI (Foxtail, Green) [9] = assay: Preemergence herbicidal evaluation; format: in vivo, Setaria viridis; settings: rated 4-5 weeks after treatment
Procedure, shortened: as §2

[10] = tested on: GLXMAW (Soybean, Williams); assay: Preemergence herbicidal evaluation; format: in vivo, Glycine max, (L.) Merr. cv Williams; settings: rated 4-5 weeks after treatment
Procedure, shortened: as §2

CYPIR (Rice Flatsedge) = assay: Preemergence weed control under flooded paddy conditions; format: in vivo, Cyperus iria; settings: rated 3-4 weeks after treatment
Procedure, shortened: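 Flooded-pot preemergence screen with silt loam and seeds in the upper 0.5 cm. Dose about 0.0313 to 0.500 kg/ha, delivered into flood water; visual 0-9 score after 3 to 4 weeks.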

CYPSE (Flatsedge) = assay: as above; format: in vivo, Cyperus serotinus; settings: rated 3-4 weeks after treatment
Procedure, shortened: (§3)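 Seeds or propagules sown in top 0.5 cm of silt loam soil, flooded 1.5 to 3 cm above surface throughout. Compound in 50/50 v/v aqueous/acetone pipetted into flood water at about 0.0313 to 0.500 kg/ha. Visual 0-9 rating versus control after three to four weeks in greenhouse.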

[11] = tested on: SAGPY (Arrowhead (Pygmaea)); assay: as above; format: in vivo, Sagittaria pygmaea; settings: rated 3-4 weeks after treatment
Procedure, shortened: as §3

CCOC(=O)CN1C(=O)C(CC(=O)O)SC1=Nc1cc(-n2nc(C)n(C(F)F)c2=O)c(F)cc1Cl (stereo not drawn) [Compound 112, 2-{{2-Chloro-5-[4-(difluoromethyl)-4,5-dihydro-3-methyl-5-oxo-1H-1,2,4-triazol-1-yl]-4-fluorophenyl}imino}-4-oxo-3,5-thiazolidinediacetic acid, 3-ethyl ester]
7.0: CYPIR herbicidal effect rating (CYPIR (Rice Flatsedge); 0.2500 kg/ha) | SAGPY herbicidal effect rating ([11]; 0.0625 kg/ha) | SAGPY herbicidal effect rating ([11]; 0.1250 kg/ha) | SAGPY herbicidal effect rating ([11]; 0.2500 kg/ha)
0.0: herbicidal rating GALAP (GALAP (Galium) [2]; rate 0.0158 kg/ha) | Preemergence herbicidal rating GALAP (GALAP (Galium) [7]; rate 0.0313 kg/ha) | Preemergence herbicidal rating GALAP (GALAP (Galium) [7]; rate 0.0625 kg/ha) | Preemergence herbicidal rating GALAP (GALAP (Galium) [7]; rate 0.1250 kg/ha) | Preemergence herbicidal rating GALAP (GALAP (Galium) [7]; rate 0.2500 kg/ha) | Preemergence herbicidal rating IPOHE ([8]; rate 0.0313 kg/ha) | Preemergence herbicidal rating IPOHE ([8]; rate 0.0625 kg/ha) | Preemergence herbicidal rating IPOHE ([8]; rate 0.1250 kg/ha) | Preemergence herbicidal rating IPOHE ([8]; rate 0.2500 kg/ha) | Preemergence herbicidal rating ECHCG (ECHCG (Barnyardgrass); rate 0.0313 kg/ha) | Preemergence herbicidal rating ECHCG (ECHCG (Barnyardgrass); rate 0.0625 kg/ha) | Preemergence herbicidal rating ECHCG (ECHCG (Barnyardgrass); rate 0.1250 kg/ha) | Preemergence herbicidal rating ECHCG (ECHCG (Barnyardgrass); rate 0.2500 kg/ha) | Preemergence herbicidal rating SETVI (SETVI (Foxtail, Green) [9]; rate 0.0625 kg/ha) | Preemergence herbicidal rating SETVI (SETVI (Foxtail, Green) [9]; rate 0.1250 kg/ha) | Preemergence herbicidal rating SETVI (SETVI (Foxtail, Green) [9]; rate 0.2500 kg/ha) | Preemergence herbicidal rating GLXMAW ([10]; rate 0.0313 kg/ha) | CYPIR herbicidal effect rating (CYPIR (Rice Flatsedge); 0.0313 kg/ha) | CYPSE herbicidal effect rating (CYPSE (Flatsedge); 0.0313 kg/ha)
5.5: herbicidal rating GLXMAW ([5]; rate 0.0158 kg/ha)
3.0: herbicidal rating SETVI (SETVI (Foxtail, Green) [4]; rate 0.0158 kg/ha) | Preemergence herbicidal rating GLXMAW ([10]; rate 0.1250 kg/ha) | Preemergence herbicidal rating GLXMAW ([10]; rate 0.2500 kg/ha) | CYPIR herbicidal effect rating (CYPIR (Rice Flatsedge); 0.0625 kg/ha)
5.0: herbicidal rating AMBEL (AMBEL (Ragweed, Common); rate 0.0158 kg/ha) | herbicidal rating GLXMAW ([5]; rate 0.0315 kg/ha) | herbicidal rating ZEAMX (ZEAMX (Corn, Field); rate 0.0630 kg/ha)
9.0: herbicidal rating ABUTH (ABUTH (Velvetleaf); rate 0.0158 kg/ha) | herbicidal rating ABUTH (ABUTH (Velvetleaf); rate 0.0315 kg/ha) | herbicidal rating ABUTH (ABUTH (Velvetleaf); rate 0.0630 kg/ha) | herbicidal rating AMBEL (AMBEL (Ragweed, Common); rate 0.0315 kg/ha) | herbicidal rating AMBEL (AMBEL (Ragweed, Common); rate 0.0630 kg/ha) | herbicidal rating CHEAL ([1]; rate 0.0315 kg/ha) | herbicidal rating CHEAL ([1]; rate 0.0630 kg/ha) | herbicidal rating IPOHE ([3]; rate 0.0158 kg/ha) | herbicidal rating IPOHE ([3]; rate 0.0315 kg/ha) | herbicidal rating IPOHE ([3]; rate 0.0630 kg/ha) | herbicidal rating SETVI (SETVI (Foxtail, Green) [4]; rate 0.0315 kg/ha)
6.0: herbicidal rating SETVI (SETVI (Foxtail, Green) [4]; rate 0.0630 kg/ha) | herbicidal rating GLXMAW ([5]; rate 0.0630 kg/ha) | CYPIR herbicidal effect rating (CYPIR (Rice Flatsedge); 0.1250 kg/ha) | SAGPY herbicidal effect rating ([11]; 0.0313 kg/ha)
1.0: Preemergence herbicidal rating CHEAL ([6]; rate 0.2500 kg/ha) | Preemergence herbicidal rating SETVI (SETVI (Foxtail, Green) [9]; rate 0.0313 kg/ha) | Preemergence herbicidal rating GLXMAW ([10]; rate 0.0625 kg/ha)
4.5: herbicidal rating ZEAMX (ZEAMX (Corn, Field); rate 0.0158 kg/ha) | herbicidal rating ZEAMX (ZEAMX (Corn, Field); rate 0.0315 kg/ha)
4.0: herbicidal rating CHEAL ([1]; rate 0.0158 kg/ha)
2.0: herbicidal rating GALAP (GALAP (Galium) [2]; rate 0.0315 kg/ha) | herbicidal rating GALAP (GALAP (Galium) [2]; rate 0.0630 kg/ha)

CCOC(=O)CN1C(=O)C(Cc2ccccc2OC(C)C(=O)O)S/C1=N/c1cc(-n2c(=O)cc(C(F)(F)F)n(C)c2=O)c(F)cc1Cl (stereo not drawn) [Compound 114, 5-[o-(1-Carboxyethoxy)benzyl]-2-{{2-chloro-5-[3,6-dihydro-3-methyl-2,6-dioxo-4-(trifluoromethyl)-1(2H)-pyrimidinyl]-4-fluorophenyl}imino}-4-oxo-3-thiazolidineacetic acid, 3-ethyl ester]
7.0: herbicidal rating AMBEL (AMBEL (Ragweed, Common); rate 0.0630 kg/ha) | herbicidal rating CHEAL ([1]; rate 0.0158 kg/ha) | herbicidal rating ZEAMX (ZEAMX (Corn, Field); rate 0.0315 kg/ha) | herbicidal rating ZEAMX (ZEAMX (Corn, Field); rate 0.0630 kg/ha) | Preemergence herbicidal rating CHEAL ([6]; rate 0.0625 kg/ha) | Preemergence herbicidal rating GALAP (GALAP (Galium) [7]; rate 0.1250 kg/ha) | Preemergence herbicidal rating IPOHE ([8]; rate 0.2500 kg/ha) | Preemergence herbicidal rating SETVI (SETVI (Foxtail, Green) [9]; rate 0.1250 kg/ha)
3.0: herbicidal rating GALAP (GALAP (Galium) [2]; rate 0.0630 kg/ha) | herbicidal rating SETVI (SETVI (Foxtail, Green) [4]; rate 0.0315 kg/ha) | Preemergence herbicidal rating GALAP (GALAP (Galium) [7]; rate 0.0625 kg/ha) | Preemergence herbicidal rating GLXMAW ([10]; rate 0.2500 kg/ha)
9.0: herbicidal rating ABUTH (ABUTH (Velvetleaf); rate 0.0158 kg/ha) | herbicidal rating ABUTH (ABUTH (Velvetleaf); rate 0.0315 kg/ha) | herbicidal rating ABUTH (ABUTH (Velvetleaf); rate 0.0630 kg/ha) | herbicidal rating AMBEL (AMBEL (Ragweed, Common); rate 0.0315 kg/ha) | herbicidal rating CHEAL ([1]; rate 0.0630 kg/ha) | herbicidal rating IPOHE ([3]; rate 0.0158 kg/ha) | herbicidal rating IPOHE ([3]; rate 0.0315 kg/ha) | herbicidal rating IPOHE ([3]; rate 0.0630 kg/ha) | herbicidal rating SETVI (SETVI (Foxtail, Green) [4]; rate 0.0630 kg/ha) | Preemergence herbicidal rating CHEAL ([6]; rate 0.0156 kg/ha) | Preemergence herbicidal rating CHEAL ([6]; rate 0.0313 kg/ha) | Preemergence herbicidal rating CHEAL ([6]; rate 0.1250 kg/ha) | Preemergence herbicidal rating CHEAL ([6]; rate 0.2500 kg/ha) | Preemergence herbicidal rating GALAP (GALAP (Galium) [7]; rate 0.2500 kg/ha) | Preemergence herbicidal rating IPOHE ([8]; rate 0.1250 kg/ha) | Preemergence herbicidal rating SETVI (SETVI (Foxtail, Green) [9]; rate 0.2500 kg/ha) | CYPIR herbicidal effect rating (CYPIR (Rice Flatsedge); 0.2500 kg/ha)
0.0: Preemergence herbicidal rating GALAP (GALAP (Galium) [7]; rate 0.0156 kg/ha) | Preemergence herbicidal rating GALAP (GALAP (Galium) [7]; rate 0.0313 kg/ha) | Preemergence herbicidal rating IPOHE ([8]; rate 0.0156 kg/ha) | Preemergence herbicidal rating IPOHE ([8]; rate 0.0313 kg/ha) | Preemergence herbicidal rating IPOHE ([8]; rate 0.0625 kg/ha) | Preemergence herbicidal rating ECHCG (ECHCG (Barnyardgrass); rate 0.0156 kg/ha) | Preemergence herbicidal rating ECHCG (ECHCG (Barnyardgrass); rate 0.0313 kg/ha) | Preemergence herbicidal rating ECHCG (ECHCG (Barnyardgrass); rate 0.0625 kg/ha) | Preemergence herbicidal rating SETVI (SETVI (Foxtail, Green) [9]; rate 0.0156 kg/ha) | Preemergence herbicidal rating SETVI (SETVI (Foxtail, Green) [9]; rate 0.0313 kg/ha) | Preemergence herbicidal rating GLXMAW ([10]; rate 0.0156 kg/ha) | Preemergence herbicidal rating GLXMAW ([10]; rate 0.0625 kg/ha)
4.0: herbicidal rating AMBEL (AMBEL (Ragweed, Common); rate 0.0158 kg/ha) | herbicidal rating SETVI (SETVI (Foxtail, Green) [4]; rate 0.0158 kg/ha) | Preemergence herbicidal rating ECHCG (ECHCG (Barnyardgrass); rate 0.2500 kg/ha)
4.5: CYPIR herbicidal effect rating (CYPIR (Rice Flatsedge); 0.0313 kg/ha) | CYPSE herbicidal effect rating (CYPSE (Flatsedge); 0.0625 kg/ha) | CYPSE herbicidal effect rating (CYPSE (Flatsedge); 0.2500 kg/ha) | SAGPY herbicidal effect rating ([11]; 0.2500 kg/ha)
6.0: herbicidal rating CHEAL ([1]; rate 0.0315 kg/ha) | herbicidal rating GLXMAW ([5]; rate 0.0158 kg/ha)
2.0: Preemergence herbicidal rating ECHCG (ECHCG (Barnyardgrass); rate 0.1250 kg/ha) | Preemergence herbicidal rating SETVI (SETVI (Foxtail, Green) [9]; rate 0.0625 kg/ha) | Preemergence herbicidal rating GLXMAW ([10]; rate 0.1250 kg/ha)
8.5: CYPIR herbicidal effect rating (CYPIR (Rice Flatsedge); 0.1250 kg/ha)
6.5: herbicidal rating GLXMAW ([5]; rate 0.0630 kg/ha) | herbicidal rating ZEAMX (ZEAMX (Corn, Field); rate 0.0158 kg/ha) | CYPIR herbicidal effect rating (CYPIR (Rice Flatsedge); 0.0625 kg/ha)
3.5: CYPSE herbicidal effect rating (CYPSE (Flatsedge); 0.0313 kg/ha) | CYPSE herbicidal effect rating (CYPSE (Flatsedge); 0.1250 kg/ha) | SAGPY herbicidal effect rating ([11]; 0.0313 kg/ha) | SAGPY herbicidal effect rating ([11]; 0.0625 kg/ha) | SAGPY herbicidal effect rating ([11]; 0.1250 kg/ha)
1.0: herbicidal rating GALAP (GALAP (Galium) [2]; rate 0.0158 kg/ha) | herbicidal rating GALAP (GALAP (Galium) [2]; rate 0.0315 kg/ha) | Preemergence herbicidal rating GLXMAW ([10]; rate 0.0313 kg/ha)
5.5: herbicidal rating GLXMAW ([5]; rate 0.0315 kg/ha)
